The text below walks through data of publication PMC4559561, “Radioiodinated PARP1 tracers for glioblastoma imaging” (EJNMMI Research, 2015).

Data set [1] can be described thus: Chemical hydrophobicity index (CHI) by reverse phase HPLC, Log P derived from CHI. The conditions noted are these: for CHI (chromatographic hydrophobicity index): from HPLC retention time against standards. In kind it is physicochemical. As to the method: Chemical hydrophobicity indices (CHIs) were measured using procedures developed previously. Briefly, reverse phase HPLC was used to measure the retention times of a set of standards with known CHI. A standard curve was then created to calculate the CHIs of all iodo-PARPi based on the HPLC retention time.

Data set [2] in a line: Plasma protein fraction by rapid equilibrium dialysis in mouse serum. In kind it is in vitro ADME. To be noted: 10 μM compound in mouse serum vs PBS, 37 °C, read-out: Plasma Free Fraction. As to the method:
The plasma protein fraction was determined using the Rapid Equilibrium Dialysis Device System (Life Technologies, Grand Island, NY) according to the manufacturer’s protocol. Membrane dialysis was performed with 10 μM of compound in mouse serum (500 μL) on one side of the membrane and PBS (750 μL) on the other side. The system was sealed with parafilm and incubated for 4 h at 37 °C on an orbital shaker set to 250 rpm. Thereafter, 400 μL of solution was taken from both sides, and samples were treated twice with an equal amount of AcN and vortexed to remove protein before HPLC analysis. After injection (100 μL), the I-PARPi peaks from each sample were then integrated and the protein bound fraction was determined. The data was analyzed using Prism 6.0c.

Data set [3] has as its target T1, PARP1 high specific activity (HSA) enzyme (Homo sapiens, UniProt P09874).
T1 construct: purchased Trevigen, Gaithersburg, MD
As to the kind of experiment: PARP-1 IC50 determination, commercial colorimetric assay (Trevigen). The format is biochemical. To be noted: 0.5 U PARP1 HSA enzyme, 10 min, histone-coated plates, triplicate. As to the method:
A commercially available colorimetric assay (Trevigen, Gaithersburg, MD) was used to measure PARP-1 activity in vitro in the presence of varying concentrations of the different iodo-[…]. […] All experiments were carried out in triplicate. […] All reaction mixtures were adjusted to a final volume of 50 μl, and a final concentration of 1 % DMSO in assay buffer. The remainder of the assay was performed according to the manufacturer's instructions. PARP1 activity was measured by absorbance at 450 nm in each well using a SpectraMax M5 spectrophotometer with SoftMax Pro software (Molecular Devices, Sunnyvale, CA).

Data set [4] can be described thus: In vitro whole blood stability. In kind it is in vitro ADME. To be noted: mouse blood, 37 °C, radio-HPLC. As to the method:
The in vitro stability was assessed by incubating 6 μCi [^131I]-PARPi in mouse blood for 0 to 60 min at 37 °C. At baseline, 15, 30, and 60 min, the samples were immediately placed on ice and mixed 1:1 with a solution of AcN/DMSO (250 μL) and then vigorously vortexed for 30 s to precipitate out serum protein. The sample was centrifuged at 3000 RCF for 3 min at 4 °C, and the supernatant was collected. This procedure was repeated three times, and the combined supernatants were analyzed by HPLC equipped with radioactive detector (Shimadzu, Kyoto, Japan), collecting samples every 30 s. Radioactivity of each fraction was measured on a Wizard 2470 Automatic Gamma Counter (Perkin Elmer, Waltham, MA), and the blood stability was analyzed using Prism 6.0c (GraphPad Software, La Jolla, CA).

The subject of data set [5] is U251 MG subcutaneous xenografts. The data set can be described thus: Biodistribution in U251 MG xenograft mice. The format is in vivo, mouse. The conditions noted are these: 2 h after tracer injection. As to the method: (§1) Biodistribution experiments were conducted on female nude mice (8–10 weeks old and 20–25 g in weight, n = 21) bearing U87 MG or U251 MG subcutaneous xenografts. The radiolabeled small molecule preparation ([…] of [^131I]-I2-PARPi in 200 μL of a solution 90 % PBS 10 % PEG300) was administrated via the lateral tail vein. To determine the optimal specific activity to achieve the highest tumor to organ ratio, various specific activities were tested (5, 50, and 250 mCi/μmol) in mice bearing U87 MG tumors. The compound was allowed to circulate for 2 h post injection at which time the mice were sacrificed and organs were harvested (n = 3). After determining the optimal specific activity, the optimal time for imaging was determined by testing the drug distribution in nude mice bearing U87 MG tumors at different time points. The drug was allowed to circulate for various times (1, 2, and 6 h), after which the mice were sacrificed (n = 3). The radioactive content in the tissue of interest (blood, tumor, muscle, bone, liver, spleen, kidney, heart, lung, pancreas, brain, skin, small intestine, large intestine, stomach, tail, thyroid, and feces) was measured on a Wizard 2470 Automatic Gamma Counter and the tissue-associated activity was calculated as the mean %ID/g.

In data set [6] the test system is U87 MG subcutaneous xenografts. As to the kind of experiment: Biodistribution in U87 MG xenograft mice. The format is in vivo, mouse. To be noted: U87 MG tumor-bearing mice, 2 h post intravenous injection. As to the method:
as §1

Data set [7] is described as follows: Blood half-life by serial blood sampling. The format is in vivo, mouse. The conditions noted are these: healthy athymic nude mice, 50 μCi i.v. As to the method: Blood half-life was determined by measuring the activity in serial blood samplings. Specifically, healthy female nude mice (8–10 weeks old, 20–25 g in weight, n = 3) were injected via the tail vein with 50 μCi [^131I]-I2-PARPi in 200 μL of solution PBS/PEG300 (10:1). The blood was sampled from the saphenous vein at 5, 15, 30, 60, 120, and 240 min post injection. The blood was weighed and radioactivity was measured on a Wizard 2470 Automatic Gamma Counter (Perkin Elmer, Waltham, MA). Measurements in counts per minute were calculated as the mean %ID/g. The blood half-life was calculated using Prism 6.0c (GraphPad Software, La Jolla, CA).

A further data set concerns U87 MG cells. The data set can be described thus: In vitro blocking study: competitive inhibition of PARPi-FL uptake. In kind it is cell-based, human. To be noted: 20 min. As to the method: U87 MG cells were seeded into a 96-well plate in a concentration of 1 × 10^4 cells per well. After 24 h, the cells were incubated with either the fluorescent PARP1 inhibitor PARPi-FL (250 nM) alone or with one of the iodo-PARPi inhibitors at a 100-fold higher concentration (25 μM) for 20 min. […] All incubation solutions also included Hoechst 33342 nuclear stain (Sigma-Aldrich, St. Louis, MO). The cells were washed twice with media and once with PBS for 5 min each and imaged on an LSM 5Live confocal microscope (Zeiss, Oberkochen, Germany). All wells were imaged with the DAPI filter for the Hoechst staining and the FITC filter for the PARPi-FL staining. The DAPI and FITC channels were co-registered, and the green fluorescence in the location of the Hoechst staining was quantified for each image. The percent reduction in PARPi-FL uptake was calculated based on the level of fluorescence intensity seen in each image and normalized to the cells receiving no iodo-PARPi inhibitor. Experiments were performed in triplicate.

Data set [8] deals with U87 MG subcutaneous tumors. The data set can be described thus: In vivo blocking study: PARPi-FL uptake in tumors, ex vivo epifluorescence imaging. Also noted: species or system mouse. The text has this: One hour post injection, the mice were sacrificed and the tumors were resected and imaged with the IVIS spectrum fluorescence imaging system (PerkinElmer, Waltham, MA) using Living Image 4.4 software. The tumors were also imaged microscopically with the 5Live fluorescent confocal microscope using the 488 nm laser for PARPi-FL excitation.

Values joined by “and” are separate entries in the source; they are usually repeats but may differ in a detail not shown here. Identical values can stand only once.

T1 sequence (P09874 whole entry): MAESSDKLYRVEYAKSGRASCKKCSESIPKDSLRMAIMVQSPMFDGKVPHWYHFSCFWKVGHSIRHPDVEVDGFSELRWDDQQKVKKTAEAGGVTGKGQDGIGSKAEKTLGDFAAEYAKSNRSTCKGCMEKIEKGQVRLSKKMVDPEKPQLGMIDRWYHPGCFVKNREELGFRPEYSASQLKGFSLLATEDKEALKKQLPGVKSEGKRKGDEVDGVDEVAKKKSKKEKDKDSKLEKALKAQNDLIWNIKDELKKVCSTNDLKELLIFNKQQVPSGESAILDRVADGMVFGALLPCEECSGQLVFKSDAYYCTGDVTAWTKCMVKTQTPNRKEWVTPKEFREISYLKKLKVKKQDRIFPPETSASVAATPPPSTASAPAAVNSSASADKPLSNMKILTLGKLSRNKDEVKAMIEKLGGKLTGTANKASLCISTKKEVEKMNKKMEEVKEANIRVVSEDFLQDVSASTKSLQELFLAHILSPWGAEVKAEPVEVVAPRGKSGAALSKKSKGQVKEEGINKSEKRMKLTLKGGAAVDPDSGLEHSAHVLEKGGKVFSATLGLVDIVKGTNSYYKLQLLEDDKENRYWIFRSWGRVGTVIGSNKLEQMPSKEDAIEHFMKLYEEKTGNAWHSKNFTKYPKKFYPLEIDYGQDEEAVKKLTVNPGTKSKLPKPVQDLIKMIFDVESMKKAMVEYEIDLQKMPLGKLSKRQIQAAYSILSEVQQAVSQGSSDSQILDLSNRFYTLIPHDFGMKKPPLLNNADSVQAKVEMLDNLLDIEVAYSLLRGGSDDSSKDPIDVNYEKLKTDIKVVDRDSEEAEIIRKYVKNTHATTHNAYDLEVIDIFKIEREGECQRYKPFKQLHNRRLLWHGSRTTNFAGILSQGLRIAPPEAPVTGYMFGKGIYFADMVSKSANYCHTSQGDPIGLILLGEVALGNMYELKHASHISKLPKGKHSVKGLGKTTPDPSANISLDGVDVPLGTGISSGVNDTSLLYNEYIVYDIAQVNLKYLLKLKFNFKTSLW

What is called IC50 is the concentration at which inhibition is half-maximal. Higher therefore signals weaker potency. `O=C(Cc1ccc(I)cc1)N1CCN(C(=O)c2cc(Cc3n[nH]c(=O)c4ccccc34)ccc2F)CC1` [I4-PARPi, 4-(4-fluoro-3-(4-(2-(4-iodophenyl)acetyl)piperazine-1-carbonyl)benzyl)phthalazin-1(2H)-one]: in data set [1], the “CHI (chromatographic hydrophobicity index)” value was 66.7. Moreover, the fraction unbound at 4 h, 10 μM in data set [2] was found to be 0.05 ± 0.003. In data set [3], the IC50 came out at 0.074 ± 0.005 µM.

For the molecule `O=C(Cc1cccc(I)c1)N1CCN(C(=O)c2cc(Cc3n[nH]c(=O)c4ccccc34)ccc2F)CC1` [I3-PARPi, 4-(4-fluoro-3-(4-(2-(3-iodophenyl)acetyl)piperazine-1-carbonyl)benzyl)phthalazin-1(2H)-one], in data set [1], the “CHI (chromatographic hydrophobicity index)” value is 66.7. For the same molecule, the fraction unbound at 4 h, 10 μM in data set [2] worked out at 0.07 ± 0.001. Further, the IC50 in [3] was 0.034 ± 0.003 µM.

On to `O=C(c1ccc([131I])cc1)N1CCN(C(=O)c2cc(Cc3n[nH]c(=O)c4ccccc34)ccc2F)CC1` [[^131I]-I2-PARPi], for which, in data set [4], the “in vitro blood stability” value is given as “stability of the drug over the course of 120 min”. In [5], the uptake in brain is 0.01 ± 0.00 %ID/g and 0.011 ± 0.003 %ID/g; the uptake in liver was 2.35 ± 0.57 %ID/g and 2.4 ± 0.6 %ID/g; the uptake in muscle was 0.03 ± 0.01 %ID/g and 0.033 ± 0.012 %ID/g; the uptake in thyroid was determined as 0.24 ± 0.06 %ID/g. In data set [5], this molecule had an uptake in tumor of 0.43 ± 0.06 %ID/g. In data set [6], this molecule yielded an uptake in brain of 0.007 ± 0.002 %ID/g, an uptake in muscle of 0.04 ± 0.02 %ID/g and an uptake in tumor of 0.50 ± 0.08 %ID/g. Further, in data set [7], the alpha blood half-life is listed as 14.3 min, the beta blood half-life is on record as 94.6 min, the “share of alpha phase” value is 96.25% and the “share of beta phase” value was determined as 3.75%. For the same molecule, the “weighted blood half-life t1/2(weighted)” value in data set [7] is reported as 17.1 min.

For `O=C(CCc1ccc(I)cc1)N1CCN(C(=O)c2cc(Cc3n[nH]c(=O)c4ccccc34)ccc2F)CC1` [I6-PARPi, 4-(4-fluoro-3-(4-(3-(4-iodophenyl)propanoyl)piperazine-1-carbonyl)benzyl) phthalazin-1(2H)-one], the “CHI (chromatographic hydrophobicity index)” value in data set [1] stood at 71.6. Also, in [2], the fraction unbound at 4 h, 10 μM was 0.047 ± 0.005. In [3], this molecule showed an IC50 of 0.047 ± 0.005 µM.

In the case of `O=C(c1cc(Cc2n[nH]c(=O)c3ccccc23)ccc1F)N1CCN(C(=O)C2CC2)CC1` [Olaparib], the logPCHI in data set [1] (derived from CHI by equation) amounted to 0.8. Further, the “reduction of PARPi-FL uptake (fluorescence signal)” value in the data set on U87 MG cells (25 µM) is 73 ± 11%; in the data set with U87 MG cells (PARPi-FL 250 nM, inhibitor 25 μM (100-fold), U87 MG cells) it was 73 ± 10%.

On to `O=C(CCc1cccc(I)c1)N1CCN(C(=O)c2cc(Cc3n[nH]c(=O)c4ccccc34)ccc2F)CC1` [I5-PARPi, 4-(4-fluoro-3-(4-(3-(3-iodophenyl)propanoyl)piperazine-1-carbonyl)benzyl)phthalazin-1(2H)-one], for which the “CHI (chromatographic hydrophobicity index)” value in data set [1] worked out at 71.6. Further, in data set [2], the fraction unbound at 4 h, 10 μM was determined as 0.078 ± 0.014. In [3], this molecule had an IC50 of 0.107 ± 0.004 µM.

As for `O=C(c1ccc(I)cc1)N1CCN(C(=O)c2cc(Cc3n[nH]c(=O)c4ccccc34)ccc2F)CC1` [I2-PARPi, 4-(4-fluoro-3-(4-(4-iodobenzoyl)piperazine-1-carbonyl)benzyl)phthalazin-1(2H)-one], the “reduction of PARPi-FL tumor fluorescence in vivo” value in [8] (I2-PARPi 125 mg/kg 30 min before PARPi-FL 2.5 mg/kg, tumors resected 1 h post injection, vs PARPi-FL alone) is given as 78 ± 4%. In addition, the fraction unbound at 4 h, 10 μM in data set [2] was determined as 0.115 ± 0.001.

On to `O=C(c1cccc(I)c1)N1CCN(C(=O)c2cc(Cc3n[nH]c(=O)c4ccccc34)ccc2F)CC1` [I1-PARPi, 4-(4-fluoro-3-(4-(3-iodobenzoyl)piperazine-1-carbonyl)benzyl)phthalazin-1(2H)-one], for which the fraction unbound at 4 h, 10 μM in data set [2] is 0.096 ± 0.015.

For `Cc1cc(C)n2c1C=C1C=CC(CCC(=O)N3CCN(C(=O)c4cc(Cc5n[nH]c(=O)c6ccccc56)ccc4F)CC3)=[N+]1[B-]2(F)F` [PARPi-FL, reference compound], in data set [8] (PARPi-FL 2.5 mg/kg alone), the “tumor fluorescence, average radiant efficiency” value is recorded as 2.03 × 10^8 ± 1.84 × 10^7.
